This passage reports TGI and GI50 results from PubChem BioAssay (NCI).

Test systems include SK-OV-3 ovarian; UACC-257 melanoma; HCT-15 colon; NCI-H460 lung; RXF 393 renal; 786-0 renal; EKVX NSCLC; KM12 colon; SN12C renal.
Assay in all cases: NCI anticancer screen, dose series, 48 h

Where “and” joins values, the source holds several entries; their conditions need not be identical. Equal entries are not always repeated.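 Tested at 5 concentrations; 48 h exposure; 96-well plates; endpoints linearly interpolated, else capped at highest concentration. GI50 marks 50% less growth. TGI: total growth inhibition.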 Some results are limits rather than exact numbers.

`C/C(CCc1ccccc1)=N\NC(N)=S`: the TGI with SK-OV-3 ovarian, in the experiment with UACC-257 melanoma, with HCT-15 colon, in the experiment with NCI-H460 lung, in the experiment with RXF 393 renal and with 786-0 renal was more than 100 µM in each case. The TGI in the experiment with EKVX NSCLC, with KM12 colon and with SN12C renal was more than 100 µM in each case.
`CCOC(=O)c1cc(/C=C/C(C)=C/C(=O)OC)oc1C`: the TGI in the experiment with SK-OV-3 ovarian, with UACC-257 melanoma, in the experiment with HCT-15 colon, in the experiment with NCI-H460 lung, in the experiment on 786-0 renal and in the experiment with EKVX NSCLC was more than 100 µM throughout. The TGI in the experiment with KM12 colon was more than 100 µM.
With `COC(=O)c1ccccc1NC(=O)C(=O)NNC(=O)c1ccncc1`, the TGI with SK-OV-3 ovarian, with UACC-257 melanoma, with HCT-15 colon, with NCI-H460 lung, in the experiment with RXF 393 renal and in the experiment on 786-0 renal was more than 100 µM each time. The TGI with EKVX NSCLC, in the experiment with KM12 colon and with SN12C renal was more than 100 µM throughout.
With `C[C@]12CCCC(=O)C1(O)C[C@H](C(=O)O)CC2` (stereo partly specified), the TGI in the experiment with SK-OV-3 ovarian, in the experiment with UACC-257 melanoma, in the experiment on HCT-15 colon, in the experiment with NCI-H460 lung, in the experiment on 786-0 renal and in the experiment on KM12 colon was more than 100 µM throughout. Further, in the experiment on SN12C renal, the TGI was more than 100 µM.
Turning to `CCOC(=O)/C=C1\CCCC12OCCO2`, the TGI in the experiment with SK-OV-3 ovarian, with UACC-257 melanoma, in the experiment with HCT-15 colon, in the experiment with NCI-H460 lung, in the experiment on RXF 393 renal and in the experiment with 786-0 renal was more than 100 µM in each case. Further, the TGI in the experiment on KM12 colon and with SN12C renal was more than 100 µM throughout.
Consider `CC[O-].CC[O-].O=S(=O)([O-])c1ccc([O-])c2ncccc12.O=S(=O)([O-])c1ccc([O-])c2ncccc12.[Ti+4]`, for which the GI50 is more than 100 µM with SK-OV-3 ovarian; 43.7 µM in the experiment with UACC-257 melanoma; more than 100 µM in the experiment on HCT-15 colon; 49 µM in the experiment on 786-0 renal; more than 100 µM in the experiment with EKVX NSCLC; 96.5 µM in the experiment with KM12 colon. Further, the GI50 in the experiment with SN12C renal was more than 100 µM. Also, the TGI in the experiment on SK-OV-3 ovarian, in the experiment on UACC-257 melanoma, in the experiment with HCT-15 colon, in the experiment on 786-0 renal, in the experiment with EKVX NSCLC and in the experiment on KM12 colon was more than 100 µM each time. This compound had a TGI with SN12C renal of more than 100 µM.
Consider `COC1OC(CO)C(O)C1N` (stereo unspecified), for which the TGI in the experiment on SK-OV-3 ovarian, in the experiment on UACC-257 melanoma, in the experiment on HCT-15 colon, with NCI-H460 lung, in the experiment on RXF 393 renal and in the experiment on 786-0 renal was more than 100 µM each time. Moreover, the TGI in the experiment on EKVX NSCLC, in the experiment with KM12 colon and with SN12C renal was more than 100 µM each time.
Regarding `CCOP(=O)(OCC)OC(C#N)c1ccc(-c2ccccc2)cc1` (stereo unspecified), the TGI with SK-OV-3 ovarian was 78.5 µM; in the experiment with UACC-257 melanoma it was 36.8 µM; in the experiment with HCT-15 colon, 32.8 µM; in the experiment with NCI-H460 lung it was 36.3 µM; in the experiment on 786-0 renal, 31.6 µM; with EKVX NSCLC, more than 100 µM. The TGI came to 33.2 µM in the experiment on KM12 colon and 36.8 µM in the experiment with SN12C renal.
With `Cc1ccccc1C1=C(C(=O)Nc2ccc(Cl)c(Cl)c2)NC(=S)NC1N` (stereo unspecified), the TGI in the experiment with SK-OV-3 ovarian, with UACC-257 melanoma, in the experiment with HCT-15 colon, in the experiment with NCI-H460 lung, in the experiment on RXF 393 renal and in the experiment on 786-0 renal was more than 100 µM in each case. The TGI with EKVX NSCLC, with KM12 colon and in the experiment on SN12C renal was more than 100 µM in each case.
Turning to `CN(C)CC1CCC/C1=N\O` (stereo unspecified), the TGI in the experiment with SK-OV-3 ovarian, in the experiment on UACC-257 melanoma, in the experiment on HCT-15 colon, in the experiment with NCI-H460 lung, in the experiment with RXF 393 renal and with 786-0 renal was more than 100 µM each time. Moreover, in the experiment on SN12C renal, the TGI was more than 100 µM.
As for `Cc1ccc(-c2cc(-c3ccco3)c(C#N)c(=O)n2C2OC(OC(=O)c3ccccc3)C(OC(=O)c3ccccc3)C2OC(=O)c2ccccc2)cc1` (stereo unspecified), the TGI in the experiment with SK-OV-3 ovarian was more than 100 µM; with HCT-15 colon, more than 100 µM; with NCI-H460 lung, more than 100 µM; with RXF 393 renal it was 88.4 µM; with 786-0 renal it was more than 100 µM; in the experiment on EKVX NSCLC it was more than 100 µM. Further, the TGI with KM12 colon and in the experiment on SN12C renal was more than 100 µM each time.
As for `C/C(=N\N(c1ccccc1)c1ccccc1)c1c(O)cc(C)oc1=O`, the TGI in the experiment with SK-OV-3 ovarian, in the experiment on UACC-257 melanoma, with HCT-15 colon, in the experiment on NCI-H460 lung, with 786-0 renal and in the experiment on EKVX NSCLC was more than 100 µM throughout. The TGI in the experiment on KM12 colon and in the experiment on SN12C renal was more than 100 µM each time.
Regarding `CCCCN(CCCC)c1c([N+](=O)[O-])c(=O)nc2ccccn12`, the TGI with SK-OV-3 ovarian is more than 100 µM; in the experiment with HCT-15 colon it was more than 100 µM; in the experiment with NCI-H460 lung, 79.4 µM; with 786-0 renal, more than 100 µM; with EKVX NSCLC, 94.1 µM; with KM12 colon, more than 100 µM. This compound showed a TGI in the experiment on SN12C renal of more than 100 µM.
As to `Cc1cccc(C)c1NC(=O)C1C(=O)N(c2c(C)cccc2C)C(=O)/C1=N\NC(N)=S` (stereo unspecified), the TGI with UACC-257 melanoma, in the experiment with HCT-15 colon, in the experiment with NCI-H460 lung, with RXF 393 renal, with 786-0 renal and in the experiment with EKVX NSCLC was more than 100 µM throughout. Besides, the TGI in the experiment on KM12 colon and in the experiment on SN12C renal was more than 100 µM throughout.
With `Cc1cc(C)c(C(=O)c2no[n+]([O-])c2C(=O)c2c(C)cc(C)c(Br)c2C)c(C)c1Br`, the TGI came out at 52.3 µM with SK-OV-3 ovarian; 30 µM with HCT-15 colon; 45.8 µM in the experiment on NCI-H460 lung; 19.9 µM in the experiment with RXF 393 renal; 32.8 µM with 786-0 renal; 24.4 µM in the experiment with EKVX NSCLC. Moreover, the results for the TGI in the experiment with KM12 colon and in the experiment with SN12C renal were 26.4 µM and 33.4 µM, respectively.
As for `CC1=C(C(=O)Nc2cccc(Cl)c2)C(c2ccccc2F)C(C(=O)Nc2cccc(Cl)c2)=C(C)N1`, the TGI in the experiment with SK-OV-3 ovarian came out at 55.5 µM; in the experiment on UACC-257 melanoma it was 22.3 µM; in the experiment with NCI-H460 lung, 24.1 µM; with RXF 393 renal, 22.4 µM; with 786-0 renal, 32.2 µM; with EKVX NSCLC, 27.5 µM. The results for the TGI in the experiment with KM12 colon and with SN12C renal were 21 µM and 23 µM, respectively.
Turning to `NCCCCNc1ccc2c(=O)[nH][nH]c(=O)c2c1`, the TGI in the experiment on SK-OV-3 ovarian, with UACC-257 melanoma, with RXF 393 renal, in the experiment on 786-0 renal, in the experiment with EKVX NSCLC and in the experiment on KM12 colon was more than 100 µM each time. For the same compound, in the experiment with SN12C renal, the TGI is more than 100 µM.
As to `O=[N+]([O-])c1cnn(C2=CNc3ccccc3N=C2)c1`, the TGI in the experiment on SK-OV-3 ovarian, in the experiment with UACC-257 melanoma, in the experiment with HCT-15 colon, with NCI-H460 lung, with RXF 393 renal and in the experiment with 786-0 renal was more than 100 µM throughout. Also, the TGI in the experiment on EKVX NSCLC and in the experiment with SN12C renal was more than 100 µM in each case.
Take `CCC1=NC(CO)[C@H](c2ccccc2)O1` (stereo partly specified): the TGI with UACC-257 melanoma, with HCT-15 colon, in the experiment on NCI-H460 lung, in the experiment with RXF 393 renal, in the experiment on 786-0 renal and in the experiment on EKVX NSCLC was more than 100 µM each time. Also, the TGI with KM12 colon and in the experiment with SN12C renal was more than 100 µM each time.
Consider `N.N.N.N.O=C([O-])C(Cl)Cl.O=C([O-])C(Cl)Cl.[Co+3].[O-][Cl+3]([O-])([O-])[O-]`, for which the GI50 in the experiment with SK-OV-3 ovarian, with UACC-257 melanoma, in the experiment on HCT-15 colon, in the experiment on NCI-H460 lung, with 786-0 renal and with EKVX NSCLC was more than 100 µM each time. In addition, the GI50 with KM12 colon and with SN12C renal was more than 100 µM throughout. Also, the TGI in the experiment with SK-OV-3 ovarian, with UACC-257 melanoma, in the experiment on HCT-15 colon, in the experiment on NCI-H460 lung, in the experiment with 786-0 renal and in the experiment on EKVX NSCLC was more than 100 µM throughout. Besides, the TGI in the experiment with KM12 colon and in the experiment with SN12C renal was more than 100 µM each time.
Regarding `N#CCCN(CCC#N)c1ccc(C(Sc2ccccc2)C(NC(=O)c2cc([N+](=O)[O-])ccc2Cl)C(=O)Sc2ccccc2)cc1` (stereo unspecified), the GI50 is 7.8 µM in the experiment with SK-OV-3 ovarian; 3.06 µM with UACC-257 melanoma; 2.25 µM in the experiment on HCT-15 colon; 415 nM with RXF 393 renal; 5.74 µM in the experiment with EKVX NSCLC. The TGI in the experiment with SK-OV-3 ovarian is 13.2 µM; in the experiment on UACC-257 melanoma, 14.3 µM; in the experiment on HCT-15 colon, 11.2 µM; in the experiment with NCI-H460 lung it was 16.8 µM; with RXF 393 renal, 5.81 µM and 3.28 µM; with 786-0 renal, 3.95 µM. In addition, the TGI with EKVX NSCLC was 9.96 µM and 25.5 µM; with SN12C renal, 4.54 µM and 6.19 µM.
